Here are results for 26 compounds from patent US11827628B2, “Compositions and methods for inhibition of the JAK pathway” (Rigel Pharmaceuticals, Inc., priority 2005, dated 2023).

The subject of experiment [1] is Primary human T-cells. The experiment is described as follows: Primary Human T-Cell Proliferation Assay Stimulated with IL-2 (CellTiter-Glo). In kind it is cell-based. The note with it: primary human T-cell proliferation stimulated with IL-2; read-out: IC50, Example 42. Put shortly:
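IC50 derived from CellTiter-Glo ATP signal after 72 hours of IL-2-driven proliferation at 37° C. Cells: primary human T-cells from blood, stimulated beforehand 3-4 days on anti-CD3/anti-CD28 with IL-2, then rested from IL-2 before compound exposure in duplicate; IL-2-free wells served as unstimulated control.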
In general terms: In ATP-based viability assays light output follows the ATP content of the culture.

Experiment [2] concerns up-regulation of ICAM-1 (CD54) by IFNγ in A549 lung epithelial cells. The experiment is described as follows: A549 Epithelial Line Stimulated with IFNγ (ICAM-1 surface expression, FACS). The note with it: A549 epithelial line stimulated with IFNγ; ICAM-1 expression by FACS; read-out: IC50, Example 43. Type of experiment: cell-based, human. The procedure, abridged:
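ICAM-1 (CD54) flow cytometry on live-gated A549 cells, geometric mean versus dose giving EC50. Cells received IFNγ at 75 ng/mL for 24 h after a 1 h compound pre-treatment spanning 30 μM to 14 nM in medium with 5% FBS and 0.3% DMSO.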
For orientation: A flow cytometer gives signals particle by particle.

With `CN1CCN(S(=O)(=O)c2cccc(Nc3ncc(F)c(Nc4ccc(OCC#N)cc4)n3)c2)CC1` [Compound I-19, N4-(4-Cyanomethoxy)phenyl-5-fluoro-N2-[3-(4-methylpiperazin-1-yl)sulfonyl]phenyl-2,4-pyrimidinediamine], the IC50 in experiment [1] amounted to 1040 nM; in experiment [2], 24900 nM.

For `Cc1ccc(Nc2ncc(F)c(Nc3ccc(OCC#N)cc3)n2)cc1S(N)(=O)=O` [Compound I-20, N2-(3-Aminosulfonyl-4-methyl)phenyl-N4-(4-cyanomethoxy)phenyl-5-fluoro-2,4-pyrimidinediamine], the half-maximal inhibitory concentration (IC50) in experiment [1] is 66.2 nM; in experiment [2], 6540 nM.

Take `N#CCOc1ccc(Nc2nc(Nc3ccc(Cl)c(S(N)(=O)=O)c3)ncc2F)cc1` [Compound I-21, N2-(3-Aminosulfonyl-4-chlorophenyl)-N4-(4-cyanomethoxy)phenyl-5-fluoro-2,4-pyrimidinediamine]: the IC50 came out at 258 nM in experiment [1] and 22700 nM in experiment [2].

For the compound `Cc1cc(Nc2nc(Nc3ccc(S(N)(=O)=O)cc3)ncc2F)ccc1OCC#N` [Compound I-22, N2-(4-Aminosulfonyl)phenyl-N4-(4-cyanomethoxy-3-methyl)phenyl-5-fluoro-2,4-pyrimidinediamine], the IC50 in experiment [1] stood at 944 nM; in experiment [2] it was 14400 nM.

With `Cc1cc(Nc2nc(Nc3ccc(S(N)(=O)=O)cc3)ncc2F)cc(C)c1OCC#N` [Compound I-25, N2-(4-Aminosulfonyl)phenyl-N4-(4-cyanomethoxy-3,5-dimethyl)phenyl-5-fluoro-2,4-pyrimidinediamine], the IC50 in experiment [1] worked out at 1610 nM; in experiment [2], 25300 nM.

Take `Cc1cc(Nc2nc(Nc3cccc(S(N)(=O)=O)c3)ncc2F)cc(C)c1OCC#N` [Compound I-26, N2-(3-Aminosulfonyl)phenyl-N4-(4-cyanomethoxy-3,5-dimethyl)phenyl-5-fluoro-2,4-pyrimidinediamine]: the concentration for half-maximal inhibition (IC50) in experiment [1] is 401 nM; in experiment [2], 4230 nM.

For `Cc1ccc(Nc2ncc(F)c(Nc3cc(C)c(OCC#N)c(C)c3)n2)cc1S(N)(=O)=O` [Compound I-27, N2-(3-Aminosulfonyl-4-methyl)phenyl-N4-(4-cyanomethoxy-3,5-dimethyl)phenyl-5-fluoro-2,4-pyrimidinediamine], the half-maximal inhibitory concentration (IC50) in experiment [1] is 914 nM; in experiment [2], 3480 nM.

As for `COc1cc(Nc2ncc(F)c(Nc3cc(C)c(OCC#N)c(C)c3)n2)ccc1S(N)(=O)=O` [Compound I-32, N2-(4-Aminosulfonyl-3-methoxy)phenyl-N4-(4-cyanomethoxy-3,5-dimethyl)phenyl-5-fluoro-2,4-pyrimidinediamine], the IC50 came out at 2780 nM in experiment [1] and 5500 nM in experiment [2].

With `Cc1cc(COc2ccc(Nc3nc(Nc4cc(C)c(F)c(S(N)(=O)=O)c4)ncc3F)cc2)no1` [Compound I-217, N2-(3-Aminosulfonyl-4-fluoro-5-methylphenyl)-5-fluoro-N4-[4-(5-methylisoxazol-3-yl)methyleneoxyphenyl]-2,4-pyrimidinediamine], the IC50 in experiment [1] was 217 nM; in experiment [2] it was 36600 nM.

For the compound `Cc1cc(COc2ccc(Nc3nc(Nc4cc(C)c(Cl)c(S(N)(=O)=O)c4)ncc3F)cc2)no1` [Compound I-218, N2-(3-Aminosulfonyl-4-chloro-5-methylphenyl)-5-fluoro-N4-[4-(5-methylisoxazol-3-yl)methyleneoxyphenyl]-2,4-pyrimidinediamine], the values for the 50% inhibitory concentration (IC50) in experiment [1] and in experiment [2] were 116 nM and 3270 nM, respectively.

Consider `Cc1cc(COc2ccc(Nc3nc(Nc4ccc(C)c(S(N)(=O)=O)c4)ncc3F)cc2)no1` [Compound I-219, N2-(3-Aminosulfonyl-4-methylphenyl)-5-fluoro-N4-[4-(5-methylisoxazol-3-yl)methyleneoxyphenyl]-2,4-pyrimidinediamine], for which the values for the 50% inhibitory concentration (IC50) in experiment [1] and in experiment [2] were 123 nM and 7160 nM, respectively.

Regarding `Cc1cc(COc2ccc(Nc3nc(Nc4cc(Cl)c(C)c(S(N)(=O)=O)c4)ncc3F)cc2F)no1` [Compound I-223, N2-(3-Aminosulfonyl-5-chloro-4-methylphenyl)-5-fluoro-N4-[3-fluoro-4-(5-methylisoxazol-3-yl)methyleneoxyphenyl]-2,4-pyrimidinediamine], the results for the 50% inhibitory concentration (IC50) in experiment [1] and in experiment [2] were 625 nM and 9090 nM, respectively.

Consider `Cc1cc(COc2ccc(Nc3nc(Nc4cc(C)c(F)c(S(N)(=O)=O)c4)ncc3F)cc2F)no1` [Compound I-224, N2-(3-Aminosulfonyl-4-fluoro-5-methylphenyl)-5-fluoro-N4-[3-fluoro-4-(5-methylisoxazol-3-yl)methyleneoxyphenyl]-2,4-pyrimidinediamine], for which the IC50 in experiment [1] was 194 nM; in experiment [2], 11300 nM.

For `Cc1cc(COc2ccc(Nc3nc(Nc4ccc(C)c(S(N)(=O)=O)c4)ncc3F)cc2C)no1` [Compound I-234, N2-(3-Aminosulfonyl-4-methylphenyl)-5-fluoro-N4-[3-methyl-4-(5-methylisoxazol-3-yl)methyleneoxyphenyl]-2,4-pyrimidinediamine], the figures for the IC50 in experiment [1] and in experiment [2] were 1010 nM and 8160 nM, respectively.

For `CCN(CC)CCNS(=O)(=O)c1cccc(Nc2ncc(F)c(Nc3ccc(OCc4cc(C)on4)c(C)c3)n2)c1` [Compound I-244, N2-[3-(2-N,N-Diethylaminoethyl)aminosulfonylphenyl)-5-fluoro-N4-[3-methyl-4-(5-methylisoxazol-3-yl)methyleneoxyphenyl]-2,4-pyrimidinediamine], the IC50 came to 1410 nM in experiment [1] and 14700 nM in experiment [2].

As for `CCN(CC)CCNS(=O)(=O)c1ccc(Nc2ncc(F)c(Nc3ccc(OCc4cc(C)on4)c(C)c3)n2)cc1` [Compound I-245, N2-[4-(2-N,N-Diethylaminoethyl)aminosulfonylphenyl)-5-fluoro-N4-[3-methyl-4-(5-methylisoxazol-3-yl)methyleneoxyphenyl]-2,4-pyrimidinediamine], the values for the IC50 in experiment [1] and in experiment [2] were 1740 nM and 16700 nM, respectively.

`CCN(CC)CCNS(=O)(=O)c1ccc(Nc2ncc(F)c(Nc3ccc(OCc4cc(C)on4)cc3)n2)cc1` [Compound I-246, N2-[4-(2-N,N-Diethylaminoethyl)aminosulfonylphenyl)-5-fluoro-N4-[4-(5-methylisoxazol-3-yl)methyleneoxyphenyl]-2,4-pyrimidinediamine]: the values for the half-inhibitory concentration (IC50) in experiment [1] and in experiment [2] were 182 nM and 8880 nM, respectively.

For `Cc1noc(COc2cccc(Nc3nc(Nc4cccc(S(N)(=O)=O)c4)ncc3F)c2)n1` [Compound I-252, N2-(3-Aminosulfonylphenyl)-5-fluoro-N4-[3-(3-methyl-1,2,4-oxadiazol-5-yl)methyleneoxyphenyl]-2,4-pyrimidinediamine], the IC50 in experiment [1] was 558 nM; in experiment [2], 74200 nM.

Turning to `Cc1noc(COc2cccc(Nc3nc(Nc4ccc(C)c(S(N)(=O)=O)c4)ncc3F)c2)n1` [Compound I-254, N2-(3-Aminosulfonyl-4-methylphenyl)-5-fluoro-N4-[3-(3-methyl-1,2,4-oxadiazol-5-yl)methyleneoxyphenyl]-2,4-pyrimidinediamine], the 50% inhibitory concentration (IC50) stood at 1910 nM in experiment [1] and 8960 nM in experiment [2].

Consider `CNS(=O)(=O)c1cc(Nc2ncc(F)c(Nc3cccc(OCc4nc(C)no4)c3)n2)ccc1C` [Compound I-255, 5-Fluoro-N2-[3-(N-methylaminosulfony)-4-methylphenyl]-N4-[3-(3-methyl-1,2,4-oxadiazol-5-yl)methyleneoxyphenyl]-2,4-pyrimidinediamine], for which the values for the half-inhibitory concentration (IC50) in experiment [1] and in experiment [2] were 2860 nM and 39300 nM, respectively.

As to `Cc1noc(COc2ccc(Nc3nc(Nc4cccc(S(=O)(=O)NCc5oc(=O)oc5C)c4)ncc3F)cc2)n1` [Compound I-257, N2-{3-[(N-5-Methyl-1,3-dioxolene-2-one-4-yl)methylene]aminosulfonylphenyl}-5-fluoro-N4-[4-(3-methyl-1,2,4-oxadiazol-5-yl)methyleneoxyphenyl]-2,4-pyrimidinediamine], the results for the 50% inhibitory concentration (IC50) in experiment [1] and in experiment [2] were 102 nM and 3080 nM, respectively.

In the case of `Cc1noc(COc2ccc(Nc3nc(Nc4ccc(C)c(S(N)(=O)=O)c4)ncc3F)cc2)n1` [Compound I-259, N2-(3-Aminosulfonyl-4-methylphenyl)-5-fluoro-N4-[4-(3-methyl-1,2,4-oxadiazol-5-yl)methyleneoxyphenyl]-2,4-pyrimidinediamine], the concentration for half-maximal inhibition (IC50) was 65.8 nM in experiment [1] and 7510 nM in experiment [2].

As to `CNS(=O)(=O)c1cc(Nc2ncc(F)c(Nc3ccc(OCc4nc(C)no4)cc3)n2)ccc1C` [Compound I-260, 5-Fluoro-N2-[3-N-(methyl)aminosulfonyl-4-methylphenyl)-N4-[4-(3-methyl-1,2,4-oxadiazol-5-yl)methyleneoxyphenyl]-2,4-pyrimidinediamine], the IC50 was 223 nM in experiment [1] and 8440 nM in experiment [2].

For the compound `Cc1noc(COc2ccc(Nc3nc(Nc4cc(C)c(Cl)c(S(N)(=O)=O)c4)ncc3F)cc2)n1` [Compound I-265, N2-(3-Aminosulfonyl-4-chloro-5-methylphenyl)-5-fluoro-N4-[4-(3-methyl-1,2,4-oxadiazol-5-yl)methyleneoxyphenyl]-2,4-pyrimidinediamine], the values for the IC50 in experiment [1] and in experiment [2] were 39.7 nM and 4080 nM, respectively.

With `Cc1noc(COc2ccc(Nc3nc(Nc4ccc(S(N)(=O)=O)cc4)ncc3F)cc2)n1` [Compound I-268, N2-(4-Aminosulfonylphenyl)-5-fluoro-N4-(4-[3-methyl-1,2,4-oxadiazol-5-yl]methyleneoxyphenyl)-2,4-pyrimidinediamine], the figures for the IC50 in experiment [1] and in experiment [2] were 140 nM and 5080 nM, respectively.

As for `Cc1nc(COc2ccc(Nc3nc(Nc4cccc(S(N)(=O)=O)c4)ncc3F)cc2)no1` [Compound I-276, N2-(3-Aminosulfonyl)phenyl-5-fluoro-N4-[4-(5-methyl-1,2,4-oxadiazol-3-yl)methoxy]phenyl-2,4-pyrimidinediamine], the IC50 is 106 nM in experiment [1] and 8090 nM in experiment [2].

The term IC50 denotes the midpoint of a concentration-inhibition curve.
